Measured values reported in paper PMC9611952, “Structural Aspects and Intermolecular Energy for Some Short Testosterone Esters” (Materials, 2022).
Values after ≈ are worked out from the molar mass of the structure shown. Where two headings read alike, the source gives them in different places.

Experiments:
[1] = Solubility check in organic oil solutions (78% oil, 20% benzyl benzoate, 2% benzyl alcohol); format: physicochemical; details: 25 °C; for solubility: oil or lipid, thermodynamic from solid, average of three; for solubility compared among the four esters (in words): oil solutions, comparison with the acetate ester
Experimental: The solubility for the four esters (mg/mL) was measured in solutions of various organic oils: medium-chain triglyceride (MCT), grape seed oil (GSO), castor oil, cottonseed oil, apricot oil, and sesame oil.
Each solution was composed of a mixture of benzyl benzoate, benzyl alcohol, and oil having a volumetric ratio of 78% oil, 20% benzyl benzoate, and 2% benzyl alcohol. In various pharmaceutical preparations of lipophilic compounds, including various steroids, benzyl benzoate is used as a solubiliser (co-solvent), benzyl alcohol acts as a solvent and at the same time prevents microbial growth and increases the lipid solubility of various esterified compounds, while the oils are used as carriers.
In order to obtain good accuracy, three such procedures were carried out, and their average was used.

[2] = cited from earlier work
[3] = set-up: method as in PMID 8095531; details: microemulsion study, cited from earlier work
[4] = apricot oil / benzyl benzoate / benzyl alcohol solution, apricot oil 78% / benzyl benzoate 20% / benzyl alcohol 2%, read-out: Solubility APRICOT
[5] = castor oil / benzyl benzoate / benzyl alcohol solution, castor oil 78% / benzyl benzoate 20% / benzyl alcohol 2%, read-out: Solubility CASTOR
[6] = cottonseed oil / benzyl benzoate / benzyl alcohol solution, cottonseed oil 78% / benzyl benzoate 20% / benzyl alcohol 2%, read-out: Solubility COTTON
[7] = grape seed oil / benzyl benzoate / benzyl alcohol solution, grape seed oil 78% / benzyl benzoate 20% / benzyl alcohol 2%, read-out: Solubility GSO
[8] = medium-chain triglyceride 78% / benzyl benzoate 20% / benzyl alcohol 2%, read-out: Solubility MCT
[9] = sesame oil / benzyl benzoate / benzyl alcohol solution, sesame oil 78% / benzyl benzoate 20% / benzyl alcohol 2%, read-out: Solubility SESAME
[10] = esterified forms of testosterone, intramuscular injections

CC(=O)OC1CCC2C3CCC4=CC(=O)CCC4(C)C3CCC12C (stereo not drawn) [TAce, Androst-4-en-17β-ol-3-one 17β-acetate]
solubility [1, 4]: 82.5 mg/mL (≈ 250 mM)
solubility [1, 5]: 162 mg/mL (≈ 491 mM)
solubility [1, 6]: 98.8 mg/mL (≈ 299 mM)
solubility [1, 7]: 98.8 mg/mL (≈ 299 mM)
solubility [1, 8]: 120 mg/mL (≈ 365 mM)
solubility compared among the four esters (in words) [1]: lowest solubility
solubility [1, 9]: 99 mg/mL (≈ 300 mM)
Half-life (days) ([2]; column of Table S2): less than one day
half-life [2, 10]: less than 1 days

CC(C)CCC(=O)OC1CCC2C3CCC4=CC(=O)CCC4(C)C3CCC12C (stereo not drawn) [TIso, Androst-4-en-17β-ol-3-one 17β-4-methylpentanoate]
solubility compared among the four esters (in words) [1]: roughly four-fold greater solubility
half-life [2, 10]: 74.4 h

CC12CCC(=O)C=C1CCC1C2CCC2(C)C(OC(=O)CCc3ccccc3)CCC12 (stereo not drawn) [TPhp, Androst-4-en-17β-ol-3-one 17β-phenylpropionate]
half-life [2, 10]: 60 h

CCC(=O)O[C@H]1CC[C@H]2[C@@H]3CCC4=CC(=O)CC[C@]4(C)[C@H]3CC[C@]12C [TPro, Androst-4-en-17β-ol-3-one 17β-propionate]
solubility [1, 4]: 127 mg/mL (≈ 370 mM)
solubility [1, 5]: 194 mg/mL (≈ 564 mM)
solubility [1, 6]: 174 mg/mL (≈ 505 mM)
solubility [1, 7]: 152 mg/mL (≈ 442 mM)
solubility [1, 8]: 185 mg/mL (≈ 538 mM)
solubility [1, 9]: 189 mg/mL (≈ 548 mM)
concentration obtained in dimethoxytetraethylene glycol [3]: 12000 µg/mL
concentration supported in soybean oil [3]: 3420 µg/mL
half-life ([2]; column of Table S2): 24 h
half-life [2, 10]: 24 h

CC(=O)O[C@]1(C(C)=O)CC[C@H]2[C@@H]3C[C@H](C)C4=CC(=O)CC[C@]4(C)[C@H]3CC[C@@]21C [medroxyprogesterone acetate]
concentration obtained in dimethoxytetraethylene glycol [3]: 1320 µg/mL
concentration supported in soybean oil [3]: 2160 µg/mL

C[C@]12CC[C@H]3[C@@H](CCC4=CC(=O)CC[C@@]43C)[C@@H]1CC[C@@H]2O [testosterone base, 17β-hydroxyandrost-4-en-3-one]
half-life ([2]; testosterone base (no ester)): a few hours

CCCCCCC(=O)O[C@H]1CC[C@H]2[C@@H]3CCC4=CC(=O)CC[C@]4(C)[C@H]3CC[C@]12C [testosterone enanthate]
concentration obtained in dimethoxytetraethylene glycol [3]: 91200 µg/mL
concentration supported in soybean oil [3]: 31500 µg/mL
